Measurements: patent publication US20240208968A1, “ALPHA V BETA 6 AND ALPHA V BETA 1 INTEGRIN INHIBITORS AND USES THEREOF” (DiCE Molecules SV, Inc., priority 2021, published 2024)
Where a name gives a salt, the structure may show the parent alone.

Legend:
αvβ1 = αvβ1 (Homo sapiens, UniProt P05556+P06756); test: Solid Phase Integrin αvβ1 Assay; format: binding
In short: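 Wells coated with 1 µg/mL recombinant TGFb1-LAP and blocked with 2% BSA/TBST, 1 mM MnCl2; αvβ1 (added at 0.2 µg/mL) and compound incubated 90 min at room temperature. Bound integrin detected by streptavidin-HRP (20 min) and TMB after Mn-containing washes; IC50 by four-parameter logistic fit.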

αvβ6 = αvβ6 (Homo sapiens, UniProt P06756+P18564); test: Solid Phase Integrin αvβ6 Assay; format: binding
Chain of αvβ6 (P06756 31-992 limits assumed): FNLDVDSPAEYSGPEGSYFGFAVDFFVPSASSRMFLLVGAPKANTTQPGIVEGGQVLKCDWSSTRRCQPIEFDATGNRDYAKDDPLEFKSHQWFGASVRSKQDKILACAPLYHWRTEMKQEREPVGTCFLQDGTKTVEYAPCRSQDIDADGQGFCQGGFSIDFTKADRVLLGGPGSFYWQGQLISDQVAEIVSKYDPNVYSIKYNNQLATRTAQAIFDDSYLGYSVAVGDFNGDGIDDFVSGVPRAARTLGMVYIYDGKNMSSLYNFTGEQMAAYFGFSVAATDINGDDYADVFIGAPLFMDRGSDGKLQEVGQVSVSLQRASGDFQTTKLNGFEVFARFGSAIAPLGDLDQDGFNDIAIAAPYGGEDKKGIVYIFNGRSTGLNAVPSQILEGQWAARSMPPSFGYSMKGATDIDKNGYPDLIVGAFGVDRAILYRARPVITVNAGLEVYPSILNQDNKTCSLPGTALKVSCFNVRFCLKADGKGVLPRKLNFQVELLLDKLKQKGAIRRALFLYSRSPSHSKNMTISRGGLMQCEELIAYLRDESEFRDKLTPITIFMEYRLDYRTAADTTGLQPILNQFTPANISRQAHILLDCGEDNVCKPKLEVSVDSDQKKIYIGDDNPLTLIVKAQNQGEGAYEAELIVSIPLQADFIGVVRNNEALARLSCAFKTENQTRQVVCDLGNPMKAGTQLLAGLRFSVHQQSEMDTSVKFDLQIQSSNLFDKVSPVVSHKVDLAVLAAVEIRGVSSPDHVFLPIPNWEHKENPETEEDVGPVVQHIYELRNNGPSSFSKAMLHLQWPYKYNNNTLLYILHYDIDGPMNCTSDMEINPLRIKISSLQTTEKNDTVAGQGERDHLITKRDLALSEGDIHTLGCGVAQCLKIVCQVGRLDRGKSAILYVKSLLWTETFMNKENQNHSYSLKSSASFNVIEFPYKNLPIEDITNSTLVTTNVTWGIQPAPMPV
Chain of αvβ6 (P18564 22-707 limits assumed): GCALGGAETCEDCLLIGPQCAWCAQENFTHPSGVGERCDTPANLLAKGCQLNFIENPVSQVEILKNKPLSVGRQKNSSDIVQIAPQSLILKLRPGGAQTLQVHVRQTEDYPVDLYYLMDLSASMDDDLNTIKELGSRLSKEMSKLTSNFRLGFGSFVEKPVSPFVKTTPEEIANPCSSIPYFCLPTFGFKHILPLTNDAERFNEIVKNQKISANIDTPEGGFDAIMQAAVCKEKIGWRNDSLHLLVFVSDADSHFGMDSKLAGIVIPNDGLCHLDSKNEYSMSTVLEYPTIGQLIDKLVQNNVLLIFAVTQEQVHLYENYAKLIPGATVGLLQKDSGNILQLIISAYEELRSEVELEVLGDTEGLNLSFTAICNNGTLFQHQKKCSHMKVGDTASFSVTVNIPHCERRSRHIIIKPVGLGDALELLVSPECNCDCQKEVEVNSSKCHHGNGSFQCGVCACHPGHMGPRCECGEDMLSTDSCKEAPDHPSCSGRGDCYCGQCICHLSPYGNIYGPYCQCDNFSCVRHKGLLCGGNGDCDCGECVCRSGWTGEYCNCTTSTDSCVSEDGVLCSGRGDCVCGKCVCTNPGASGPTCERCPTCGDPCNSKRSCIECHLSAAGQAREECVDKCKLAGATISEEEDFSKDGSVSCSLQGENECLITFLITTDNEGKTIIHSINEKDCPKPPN
In short: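 Plates coated with 1 μg/mL recombinant TGFb1-LAP; compounds and αvβ6 (0.2 μg/mL diluted stock) incubated 1 h at room temperature in 2% BSA/TBST with 1 mM MnCl2. Bound integrin detected with streptavidin-HRP and TMB; IC50 from four-parameter logistic fits.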

Chain of αvβ1 (P06756 31-992 limits assumed): as the sequence (P06756 31-992 limits assumed) above
Chain of αvβ1 (P05556 21-728 limits assumed): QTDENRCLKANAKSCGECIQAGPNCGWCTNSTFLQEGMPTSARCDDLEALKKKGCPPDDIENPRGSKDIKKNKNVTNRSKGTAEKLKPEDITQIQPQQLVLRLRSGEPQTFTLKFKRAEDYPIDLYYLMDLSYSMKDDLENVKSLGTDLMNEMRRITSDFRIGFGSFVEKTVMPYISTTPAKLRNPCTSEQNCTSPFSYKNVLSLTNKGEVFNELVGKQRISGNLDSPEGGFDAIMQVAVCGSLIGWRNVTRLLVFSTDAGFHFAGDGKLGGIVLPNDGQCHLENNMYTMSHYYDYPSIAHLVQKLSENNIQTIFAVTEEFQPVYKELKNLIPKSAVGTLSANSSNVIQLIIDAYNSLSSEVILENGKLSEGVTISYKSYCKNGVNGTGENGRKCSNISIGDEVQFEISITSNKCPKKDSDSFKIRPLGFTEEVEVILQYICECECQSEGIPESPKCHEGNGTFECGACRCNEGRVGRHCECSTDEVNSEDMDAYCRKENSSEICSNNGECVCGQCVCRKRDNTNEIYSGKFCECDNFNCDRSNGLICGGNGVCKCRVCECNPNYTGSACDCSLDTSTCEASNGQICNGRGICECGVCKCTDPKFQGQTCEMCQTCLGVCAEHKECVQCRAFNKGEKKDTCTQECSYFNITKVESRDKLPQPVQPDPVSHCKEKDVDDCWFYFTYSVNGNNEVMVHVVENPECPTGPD

Compound | IC50 (αvβ1) [nM] | IC50 (αvβ6) [nM]
O=C(O)[C@@H](CCO[C@@H]1CCCN(CCCc2ccc3c(n2)NCCC3)C1)Nc1ncnc2cc(F)c(F)cc12 [Compound 503] | > 1000 | 100 to 1000
O=C(O)CC(CC(=O)N[C@H]1CCN(C(=O)CCCc2ccc3c(n2)NCCC3)C1)c1ccccc1 (stereo partly shown) [Compound 520] | < 100 | 100 to 1000
C[C@@H]1C[C@@H](C(=O)NC[C@@H](C(=O)O)c2ccc3ccccc3c2)CN(CCCc2ccc3c(n2)NCCC3)C1 [Compound 639] | 100 to 1000 | 100 to 1000
O=C(O)C[C@@H](CO[C@@H]1CCCN(CCCc2ccc3c(n2)NCCC3)C1)c1cccc([C@@H]2CCOC2)c1 [Compound 506] | < 100 | < 100
C[C@H]1C[C@H](C(=O)NC[C@H](C(=O)O)c2ccc3ccccc3c2)CN(CCCc2ccc3c(n2)NCCC3)C1 [Compound 635] | 100 to 1000 | 100 to 1000
O=C(O)[C@](O)(CO[C@@H]1CCCN(CCCc2ccc3c(n2)NCCC3)C1)c1ccccc1 [Compound 452] | > 1000 | > 1000
O=C(O)C[C@H](NC(=O)[C@@H]1CCCN(C(=O)CCc2ccc3c(n2)NCCC3)C1)c1ccccc1 [Compound 289, (S)-3-phenyl-3-((R)-1-(3-(5,6,7,8-tetrahydro-1,8-naphthyridin-2-yl)propanoyl)piperidine-3-carboxamido)propanoic acid hydrochloride] | 100 to 1000 | 100 to 1000
O=C(O)C[C@H](CO[C@@H]1CCCN(CCCc2ccc3c(n2)NCCC3)C1)c1cccc(-c2ccccc2)c1 [Compound 456] | < 100 | < 100
Cc1cc(C)n(-c2cccc([C@H](CC(=O)O)NC(=O)[C@@H]3CCCN(CCCc4ccc5c(n4)NCCC5)C3)c2)n1 [Compound 225, (S)-3-(3-(3,5-dimethyl-1H-pyrazol-1-yl)phenyl)-3-((R)-1-(3-(5,6,7,8-tetrahydro-1,8-naphthyridin-2-yl)propyl)piperidine-3-carboxamido)propanoic acid hydrochloride] | < 100 | < 100
O=C(CC[C@H](C(=O)O)c1ccccc1)N[C@H]1CCN(CCCCc2ccc3c(n2)NCCC3)C1 [Compound 422] | > 1000 | > 1000
CC1(C)CN(c2cccc([C@@H](CO[C@@H]3CCCN(CCCc4ccc5c(n4)NCCC5)C3)CC(=O)O)c2)CCO1 [Compound 568] | < 100 | < 100
O=C(CC[C@H](NC(=O)C12CCC(CC1)CC2)C(=O)O)N[C@H]1CCN(CCCCc2ccc3c(n2)NCCC3)C1 [Compound 430] | < 100 | < 100
CC1(C)CCCN(c2cccc([C@@H](CO[C@@H]3CCCN(CCCc4ccc5c(n4)NCCC5)C3)CC(=O)O)c2)C1 [Compound 570] | < 100 | < 100
O=C(N[C@@H](CCO[C@@H]1CCCN(CCCc2ccc3c(n2)NCCC3)C1)C(=O)O)c1c(F)cc(N2CCOCC2)cc1F [Compound 467] | < 100 | < 100
CC1(C)CN(c2cccc([C@H](CC(=O)O)NC(=O)[C@@H]3CCCN(CCCc4ccc5c(n4)NCCC5)C3)c2)CC(C)(C)O1 [Compound 242, (S)-3-((R)-1-(3-(5,6,7,8-tetrahydro-1,8-naphthyridin-2-yl)propyl)piperidine-3-carboxamido)-3-(3-(2,2,6,6-tetramethylmorpholino)phenyl)propanoic acid] | < 100 | < 100
O=C(CC[C@@H](NC(=O)[C@@H]1CCCN1S(=O)(=O)c1ccccc1)C(=O)O)N[C@H]1CCN(CCCCc2ccc3c(n2)NCCC3)C1 [Compound 437] | < 100 | > 1000
O=C(O)C[C@H](NC(=O)[C@H]1CN(CCCc2ccc3c(n2)NCCC3)CC(F)(F)C1)c1ccccc1 [Compound 291-B, (3S)-3-(5,5-difluoro-1-(3-(5,6,7,8-tetrahydro-1,8-naphthyridin-2-yl)propyl)piperidine-3-carboxamido)-3-phenylpropanoic acid] | 100 to 1000 | 100 to 1000
O=C(O)[C@@H](CCO[C@@H]1CCCN(CCCc2ccc3c(n2)NCCC3)C1)Nc1ncnc2cc(C(F)(F)F)ccc12 [Compound 497] | 100 to 1000 | < 100
O=C(O)C[C@H](NC(=O)[C@@H]1CN(CCCc2ccc3c(n2)NCCC3)CC(F)(F)C1)c1ccccc1 [Compound 291-A, (3S)-3-(5,5-difluoro-1-(3-(5,6,7,8-tetrahydro-1,8-naphthyridin-2-yl)propyl)piperidine-3-carboxamido)-3-phenylpropanoic acid] | 100 to 1000 | < 100
O=C(O)C[C@@H](CO[C@@H]1CCCN(CCCc2ccc3c(n2)NCCC3)C1)c1cccc(N2C[C@H]3CC[C@@H]2CO3)c1 [Compound 465] | < 100 | < 100
O=C(CC[C@H](NC(=O)[C@H]1CCCN1S(=O)(=O)c1ccccc1)C(=O)O)N[C@H]1CCN(CCCCc2ccc3c(n2)NCCC3)C1 [Compound 434] | < 100 | < 100

Second part, the molecule after the results:

IC50 (αvβ1) [nM] | IC50 (αvβ6) [nM] | Compound
< 100 | < 100 | O=C(NC[C@@H](C(=O)O)c1cccc(C2CC2)c1)[C@@H]1CCCN(CCCc2ccc3c(n2)NCCC3)C1 [Compound 258-B, 2-(3-cyclopropylphenyl)-3-((R)-1-(3-(5,6,7,8-tetrahydro-1,8-naphthyridin-2-yl)propyl)piperidine-3-carboxamido)propanoic acid]
100 to 1000 | > 1000 | O=C(NC[C@@H](C(=O)O)c1ccccc1C1CC1)[C@@H]1CCCN(CCCc2ccc3c(n2)NCCC3)C1 [Compound 260-B, 2-(2-cyclopropylphenyl)-3-((R)-1-(3-(5,6,7,8-tetrahydro-1,8-naphthyridin-2-yl)propyl)piperidine-3-carboxamido)propanoic acid]
< 100 | < 100 | O=C(O)C[C@@H](NC(=O)[C@@H]1CCCN(CCCc2ccc3c(n2)NCCC3)C1)c1cccc(C(F)(F)F)c1 (single isomer, unassigned) [Compound 203-B, hydrochloride]
> 1000 | > 1000 | O=C(NC1([C@@H](C(=O)O)c2cccc(-c3ccccc3)c2)CC1)[C@@H]1CCCN(CCCc2ccc3c(n2)NCCC3)C1 [Compound 301-B, 2-([1,1′-biphenyl]-3-yl)-2-(1-((R)-1-(3-(5,6,7,8-tetrahydro-1,8-naphthyridin-2-yl)propyl)piperidine-3-carboxamido)cyclopropyl)acetic acid]
< 100 | < 100 | O=C(N[C@@H](CNC(=O)[C@@H]1CCCN(CCCc2ccc3c(n2)NCCC3)C1)C(=O)O)c1cccc2c1CCC2 [Compound 549]
< 100 | < 100 | CC1(C)COCCN1c1cccc([C@H](CC(=O)O)NC(=O)[C@@H]2CCCN(CCCc3ccc4c(n3)NCCC4)C2)c1 [Compound 235, (S)-3-(3-(3,3-dimethylmorpholino)phenyl)-3-((R)-1-(3-(5,6,7,8-tetrahydro-1,8-naphthyridin-2-yl)propyl)piperidine-3-carboxamido)propanoic acid]
> 1000 | 100 to 1000 | O=C(O)C[C@H](NC(=O)[C@@H]1CCCN(CCCc2ccc3c(n2)NCCC3)C1)c1cccc(C(F)(F)F)c1 (single isomer, unassigned) [Compound 203-A, hydrochloride]
< 100 | < 100 | O=C(N[C@@H](CNC(=O)[C@@H]1CCCN(CCCc2ccc3c(n2)NCCC3)C1)C(=O)O)c1ccccc1C1CC1 [Compound 371]
< 100 | < 100 | O=C(NC[C@H](C(=O)O)c1ccc(F)c(-c2ccccc2)c1)[C@@H]1CCCN(CCCc2ccc3c(n2)NCCC3)C1 [Compound 309]
< 100 | < 100 | O=C(N[C@@H](CCO[C@@H]1CCCN(CCCc2ccc3c(n2)NCCC3)C1)C(=O)O)c1ccccc1 [Compound 469]
< 100 | < 100 | O=C(NC[C@@H](C(=O)O)c1ccc2c(c1)CCCC2)[C@@H]1CCCN(CCCc2ccc3c(n2)NCCC3)C1 [Compound 248-B, 3-((R)-1-(3-(5,6,7,8-tetrahydro-1,8-naphthyridin-2-yl)propyl)piperidine-3-carboxamido)-2-(5,6,7,8-tetrahydronaphthalen-2-yl)propanoic acid]
< 100 | < 100 | O=C(NC[C@H](NS(=O)(=O)c1cccc2c1CCC2)C(=O)O)[C@@H]1CCCN(CCCc2ccc3c(n2)NCCC3)C1 [Compound 543]
< 100 | 100 to 1000 | O=C(NC[C@H](C(=O)O)c1ccc2c(c1)CCC2)[C@@H]1CCCN(CCCc2ccc3c(n2)NCCC3)C1 [Compound 254-A, 2-(2,3-dihydro-1H-inden-5-yl)-3-((R)-1-(3-(5,6,7,8-tetrahydro-1,8-naphthyridin-2-yl)propyl)piperidine-3-carboxamido)propanoic acid]
< 100 | < 100 | Cc1cnn(C)c1-c1cccc([C@H](CC(=O)O)NC(=O)[C@@H]2CCCN(CCCc3ccc4c(n3)NCCC4)C2)c1 [Compound 226, (S)-3-(3-(1,4-dimethyl-1H-pyrazol-5-yl)phenyl)-3-((R)-1-(3-(5,6,7,8-tetrahydro-1,8-naphthyridin-2-yl)propyl)piperidine-3-carboxamido)propanoic acid hydrochloride]
< 100 | < 100 | CC1(C)CN(c2cccc([C@@H](CNC(=O)[C@@H]3CCCN(CCCc4ccc5c(n4)NCCC5)C3)C(=O)O)c2)CCO1 [Compound 595]
< 100 | < 100 | O=C(NC[C@H](C(=O)O)c1ccc2ccccc2c1)[C@@H]1CCCN(CCCc2ccc3c(n2)NCCC3)C1 [Compound 249-A, 2-(naphthalen-2-yl)-3-((R)-1-(3-(5,6,7,8-tetrahydro-1,8-naphthyridin-2-yl)propyl)piperidine-3-carboxamido)propanoic acid]
100 to 1000 | < 100 | O=C(O)C[C@@H](NC(=O)[C@@H]1CCCN(CCCc2ccc3c(n2)NCCC3)C1)c1cnc2ccccc2n1 [Compound 374]
